In brackets after ≈: the same amount, converted by molar mass.
What was measured:
[1] = system: Staphylococcus aureus; test: Antimicrobial activity against methicillin-resistant Staphylococcus aureus by broth microdilution method; type: functional
[2] = system: Staphylococcus aureus; test: Antimicrobial activity against methicillin-susceptible Staphylococcus aureus by broth microdilution method; type: functional
[3] = system: Staphylococcus aureus; test: Antimicrobial activity against methicillin-resistant Staphylococcus aureus by broth microdilution method in presence of 50% human plasma; type: functional
[4] = system: Staphylococcus aureus; test: Antimicrobial activity against methicillin-susceptible Staphylococcus aureus by broth microdilution method in presence of 50% human plasma; type: functional
[5] = system: Staphylococcus aureus; test: Bactericidal activity against methicillin-resistant Staphylococcus aureus after 24 hrs by M26-A method; type: functional
[6] = system: Staphylococcus aureus; test: Bactericidal activity against methicillin-susceptible Staphylococcus aureus after 24 hrs by M26-A method; type: functional
[7] = system: Staphylococcus aureus; test: Bactericidal activity against methicillin-resistant Staphylococcus aureus after 24 hrs by M26-A method in presence of 50% human plasma; type: functional
[8] = system: Staphylococcus aureus; test: Bactericidal activity against methicillin-susceptible Staphylococcus aureus after 24 hrs by M26-A method in presence of 50% human plasma; type: functional
[9] = system: Staphylococcus aureus; test: Ratio of MBC to MIC for methicillin-susceptible Staphylococcus aureus; type: functional
[10] = system: Staphylococcus aureus; test: Ratio of MBC to MIC for methicillin-susceptible Staphylococcus aureus in presence of 50% human plasma; type: functional
[11] = system: Staphylococcus aureus; test: Bactericidal activity against methicillin-susceptible Staphylococcus aureus ATCC 25923 on CAMHB media at 4 times MIC by time kill analysis; type: functional
[12] = system: Staphylococcus aureus; test: Bactericidal activity against methicillin-susceptible Staphylococcus aureus ATCC 25923 on CAMHB media at 4 times MIC by time kill analysis in presence of 50% human plasma; type: functional
[13] = system: Staphylococcus aureus; test: Bactericidal activity against methicillin-resistant Staphylococcus aureus 50478 on CAMHB media at 4 times MIC by time kill analysis; type: functional
[14] = system: Staphylococcus aureus; test: Bactericidal activity against methicillin-resistant Staphylococcus aureus 50478 on CAMHB media at 4 times MIC by time kill analysis in presence of 50% human plasma; type: functional
[15] = system: Staphylococcus aureus; test: Bactericidal activity against methicillin-resistant Staphylococcus aureus 3817 on CAMHB media at 4 times MIC by time kill analysis; type: functional
[16] = system: Staphylococcus aureus; test: Bactericidal activity against methicillin-resistant Staphylococcus aureus 6 on CAMHB media at 4 times MIC by time kill analysis in presence of 50% human plasma; type: functional
[17] = system: Staphylococcus aureus; test: Bactericidal activity against methicillin-resistant Staphylococcus aureus 20 on CAMHB media at 4 times MIC by time kill analysis; type: functional
[18] = system: Staphylococcus aureus; test: Bactericidal activity against methicillin-resistant Staphylococcus aureus 20 on CAMHB media at 4 times MIC by time kill analysis in presence of 50% human plasma; type: functional
[19] = Plasma protein binding in human; type: ADME, cell-free; conditions: read-out: PPB (converted)
[20] = system: Staphylococcus aureus; test: Ratio of MIC for glycopeptide-nonsusceptible Staphylococcus aureus NJ992 in presence of 50% heat inactivated serum to MIC for glycopeptide-nonsusceptible Staphylococcus aureus NJ992; type: functional
[21] = system: Staphylococcus aureus; test: Bactericidal activity against methicillin-resistant Staphylococcus aureus 3817 on CAMHB media at 4 times MIC by time kill analysis in presence of 50% human plasma; type: functional
[22] = system: Staphylococcus aureus; test: Bactericidal activity against methicillin-resistant Staphylococcus aureus 6 on CAMHB media at 4 times MIC by time kill analysis; type: functional

SMILES	MIC [1]	MIC [2]	MIC [3]	MIC [4]	MBC [5]	MBC [6]	MBC [7]	MBC [8]	Ratio [9]	Ratio [10]	Time [11]	Time [12]	Time [14]	Time [15]	Time [17]	Time [18]	fraction unbound [19]	other results
COc1cc(Cc2cnc(N)nc2N)c2c(c1OC)OC(C1CC1)C=C2 (configuration not stated)	0.09 µg/mL (≈ 0.254 µM)	0.09 µg/mL (≈ 0.254 µM)	0.11 µg/mL	0.11 µg/mL	0.1 µg/mL (≈ 0.282 µM)	0.1 µg/mL (≈ 0.282 µM)	0.11 µg/mL	0.11 µg/mL	1	1	6.2 h	7.2 h	6 h	6.1 h	5.5 h	5 h	0.07	Time [13]: 6.8 h; Time [16]: 7.6 h; Ratio [20]: 1
CC(=O)N[C@@H]1[C@H](Oc2c3cc4cc2Oc2ccc(cc2Cl)[C@@H](O[C@@H]2O[C@@H](CO)[C@@H](O)[C@H](O)[C@@H]2NC(C)=O)[C@@H]2NC(=O)[C@H](NC(=O)[C@@H]4NC(=O)[C@H]4NC(=O)[C@@H](Cc5ccc(c(Cl)c5)O3)NC(=O)[C@H](N)c3ccc(O)c(c3)Oc3cc(O)cc4c3)c3ccc(O)c(c3)-c3c(O[C@H]4O[C@H](CO)[C@@H](O)[C@@H](O)[C@@H]4O)cc(O)cc3[C@@H](C(=O)O)NC2=O)O[C@@H](CO)[C@@H](O)[C@@H]1O	1.07 µg/mL (≈ 0.605 µM)	1.07 µg/mL (≈ 0.605 µM)	1.23 µg/mL	1.23 µg/mL	1.41 µg/mL (≈ 0.798 µM)	1.41 µg/mL (≈ 0.798 µM)	1.68 µg/mL	1.68 µg/mL	1	1								
CC(=O)O[C@H]1C[C@@]2(C)[C@@H](C[C@@H](O)[C@H]3[C@@]4(C)CC[C@@H](O)[C@@H](C)[C@@H]4CC[C@@]32C)/C1=C(\CCC=C(C)C)C(=O)O [FUSIDIC ACID]	0.14 µg/mL (≈ 0.271 µM)	0.14 µg/mL (≈ 0.271 µM)	6.73 µg/mL	6.73 µg/mL					2	4							0.03	
CC(=O)NC[C@H]1CN(c2ccc(N3CCOCC3)c(F)c2)C(=O)O1 [LINEZOLID]	3.73 µg/mL (≈ 11.1 µM)	3.73 µg/mL (≈ 11.1 µM)	2.55 µg/mL	2.55 µg/mL	> 32 µg/mL	> 32 µg/mL	> 32 µg/mL	> 32 µg/mL										
CN[C@H](CC(C)C)C(=O)N[C@H]1C(=O)N[C@@H](CC(N)=O)C(=O)N[C@H]2C(=O)N[C@H]3C(=O)N[C@H](C(=O)N[C@H](C(=O)O)c4cc(O)cc(O)c4-c4cc3ccc4O)[C@H](O)c3ccc(c(Cl)c3)Oc3cc2cc(c3O[C@@H]2O[C@H](CO)[C@@H](O)[C@H](O)[C@H]2O[C@H]2C[C@](C)(N)[C@H](O)[C@H](C)O2)Oc2ccc(cc2Cl)[C@H]1O [VANCOMYCIN]	1.62 µg/mL (≈ 1.12 µM)	1.62 µg/mL (≈ 1.12 µM)	1.46 µg/mL	1.46 µg/mL	1.74 µg/mL (≈ 1.2 µM)	1.74 µg/mL (≈ 1.2 µM)	1.52 µg/mL	1.52 µg/mL			15 h	12.8 h	12 h	17 h	10.6 h	17 h	0.45	Time [21]: 15.6 h; Time [22]: 13.5 h
